Experimental data from patent publication US6627664B2, “Perylenequinones for use as sonosensitizers” (Altachem Pharma Ltd., priority 2001, dated 2003).
Read-outs that look alike come from different tables or passages of the source. Marks after values point to notes of the source that are not given here.

Key:
[1] = insonated solutions, TMPone; cited from earlier work
[2] = same concentration as Hp; cited from earlier work
[3] = tested on: sarcoma 180 cells; conditions: 80 μM, insonated, versus ultrasound alone; cited from earlier work
[4] = tested on: sarcoma 180 cells; conditions: 56 mg/kg administered before insonation; cited from earlier work
[5] = tested on: cell lines; conditions: tone-burst and pulsed ultrasound; cited from earlier work
[6] = tested on: uterine cervical squamous cell carcinomas; conditions: with ultrasound; cited from earlier work
[7] = tested on: EMT6/Ed tumors; experiment: EMT6/Ed tumor control after 630 nm light applied transcutaneously; format: in vivo, Balb/c mice; conditions: 50 μmol/kg body weight
Experimental: Both the concentration of drug and the dosage of light are important for treatment of tumors.
EMT6/Ed tumor control in Balb/c mice following various doses of 630 nm light applied transcutaneously. HBEA-R1 was administered at a fixed dose. True control represents animals given neither photosensitizer nor laser light. The animals were treated approximately 7 days following tumor implantation, and euthanized when tumors reached four times treatment volume.

[8] = tested on: cell suspension; experiment: Oxygen dependency of phototoxicity; format: cell-based; conditions: total absence of oxygen
Description: Phototoxicity diminishes as the pO2 in the gas phase of the cell suspension is reduced for PDT treatment, from ambient to 0.0%. The oxygen enhancement ratio (O.E.R.) Is 4.0 at the D0.

[9] = tested on: cells; conditions: for Photopotentiation Factor: LD50 dark divided by LD50 light; for LD50 Light: light dose not fixed, 0.75-1.0 J/cm2 of 630 nm light
Description: As used herein, “photopotentiation factor” refers to the property of the compound(s) to exert light- or sound-mediated toxicity in excess of its (their) inherent unactivated toxicity. […] Where the term “LD50” has been used above, the term “IC50” may be substituted, to address the bioassays that concern metabolic activity rather than the endpoint of lethality, loss of reproductive capability, or clonogenic death. The relative photoactivation efficiency of a compound may also be determined using a clonogenic assay, an assay that is well known to those skilled in the art.
In accordance with the present invention, a desirable PQP derivative is one that is non-toxic (or of low toxicity) at high drug concentrations without activation, i.e., without light (also referred to as “dark”), and/or without sound, and is toxic at low concentrations when light of the appropriate wavelength, or sound of the appropriate frequency, is applied. As is recognized by those skilled in the art, the most desirable compounds are those that provide a wide range of non-toxic doses in an unactivated state, as this characteristic provides an increased safety factor for the patient.

[10] = Singlet oxygen (1O2) yield; format: physicochemical
[11] = tested on: EMT6/Ed cells; experiment: Propidium iodide determination of apoptotic nuclei; format: cell-based
Description: The background frequency of cells with apoptotic morphology is represented by the untreated control.

[12] = tested on: EMT6/Ed cells; experiment: Cellular uptake by 14C-labeling and confocal laser scanning microscopy; conditions: CLSM
[13] = tested on: EMT6/Ed cells
[14] = Light absorption properties (red spectral region, 630 nm); format: physicochemical; conditions: for A630: absorbance at 630 nm
[15] = tested on: HL-60 cells; experiment: Sonodynamic toxicity (insonation, surviving fraction); format: cell-based, human
Experimental: Sonodynamic toxicity of two perylenequinone derivatives in human promyelocytic leukemia cells in vitro, with respect to a positive control, hematoporphyrin at 1 mM.
HL-60 cells were treated with perylenequinone sensitizers and insonated as described above. The surviving fractions were plotted against sensitizer concentration. […] Cell survival decreased steeply over the next two decades of sensitizer concentration.

CCCCCCCCCCOC(C)C1=C(C)c2cc3[n-]c(cc4[n-]c(cc5nc(cc1n2)C(C)=C5C(C)OCCCCCCCCCC)c(C)c4CCC(=O)NC(CC(=O)[O-])C(=O)[O-])c(CCC(=O)NC(CC(=O)[O-])C(=O)[O-])c3C.[Ga+3].[H+].[H+].[H+] (stereo not shown) [ATX-70, 2,4-bis(1-decyloxyethyl)-Ga(lll)-1,3,5,8-tetramethylporphryin-6,7-dipropionyl diaspartic acid]
levels of nitroxide relative to solutions containing Hp [1]: 2.5 times
ultrasound induced bleaching relative to Hp [2]: three times as great
rate of ultrasound-induced cell damage [3]: in excess of four times

C=Cc1c(C)c2cc3nc(c4c5[nH]c(cc6nc(cc1[nH]2)C(C)=C6CC)c(C)c5C(=O)[C@@H]4C(=O)OC)[C@@H](CCC(=O)O)[C@@H]3C [Ph-A, Pheophorbide A]
rate of ultrasound-induced cell damage [3]: double
tumor growth [4]: completely inhibited tumor growth

CCOC(=O)NC1=C(N2CC2)C(=O)C(NC(=O)OCC)=C(N2CC2)C1=O [diaziquone]
effect in combination with ultrasound on cytotoxicity [5]: synergistic effects
antitumour effect measured by volume reduction [6]: significant antitumour effect

COc1cccc2c1C(=O)c1c(O)c3c(c(O)c1C2=O)C[C@@](O)(C(=O)CO)C[C@@H]3O[C@H]1C[C@H](N)[C@H](O)[C@H](C)O1 [doxorubicin]
antitumour effect measured by volume reduction [6]: significant antitumour effect

Ethanolamine-HB [HBEA-R1]
cure rate ([7]; 50 Joules of 630 nm light): 40%
tumor cure ([7]; 100 Joules of 630 nm light): approximately 90%
cure rates ([7]; lower light dosages): significantly lower
phototoxicity without oxygen [8]: Evidence of type 1—mediated phototoxicity
Photopotentiation Factor [9]: 100-167
LD50 Light [9]: 0.15 µM
cell killing with light ([9]; wavelengths between at least 630 and 688 nm): capable of killing cells
LD50 Dark ([9]; without light): 15 to 25 µM
^1O2 Yield [10]: 0.60
apoptotic morphology ([11]; PDT, within 48 hours of treatment): 50%
induction of apoptosis by sensitizer alone ([11]; photosensitizing concentrations, no light): do not induce apoptosis
time until uptake is complete [12]: ≤ 2 h

Hypocrellin B [HB, reference compound]
cytotoxicity under uptake conditions [13]: not cytotoxic
time until cellular uptake reached equilibrium [13]: ≤ 15 min
Photopotentiation Factor [9]: 10-13
LD50 Light [9]: 1.5 to 2 µM
LD50 Dark ([9]; without light): 20 µM
^1O2 Yield [10]: 0.74
Abs. Peak in red Spectral region [14]: 658* nm
Extinction Coefficient (× 10^−3) (630 nm) [14]: 1.00 × 10^−3
A630 [14]: 0.100
Amax/solvent ([14]; solvent DMF): 0.118/DMF

demethylated HB [DMHB]
LD50 Dark [9]: >25 µM
Photopotentiation Factor [9]: >5-8.3
LD50 Light [9]: 3 to 5 µM
^1O2 Yield [10]: 0.42
Abs. Peak in red Spectral region [14]: 648* nm
Extinction Coefficient (× 10^−3) (630 nm) [14]: 4.77 × 10^−3
A630 [14]: 0.477
Amax/solvent ([14]; solvent EtOH): 0.469/EtOH
maximum sonotoxic effect ([15]; 100 μM to 1000 μM, versus 1000 μM Hp control): comparable to that of the Hp control
sonotoxicity ([15]; up to 100 μM): negligible sonotoxicity
